This is an account of results in patent publication US20210161855A1, “5-LIPOXYGENASE ANTAGONISTS” (INSTITUTO DE MEDICINA MOLECULAR JOÃO LOBO ANTUNES, priority 2017, published 2021).

Assay type in all cases: cell-based
One assay relates to HL-60. As to the kind of experiment: Cell viability, AML model HL-60 (FIG. 9a). The conditions noted are these: Homo sapiens, n=3.
A further assay concerns HL-60 cells. As to the kind of experiment: HL-60 cell viability with and without DMSO differentiation (Alamar Blue). The note with it: Homo sapiens, 48 hours, n=1. As for the experimental part: Cells were fixed with […] BD fix buffer while vortexing. […] After the required incubation time, cells were washed and incubated for another hour with goat anti-rabbit Alexa fluor 488 antibody. Cells are then washed and resuspended in PBS and acquired by LSRFortessa™ flow cytometer (BD Biosciences, USA) with a 488 nm laser, a 505 nm long-pass filter and a 530/30 nm band-pass filter (for FITC detection). Data was analyzed using the FlowJo software. […] Cells were treated with varying concentration of β-lapachone for a time period of 48 hours. Cell death was analyzed using standard Alamar Blue assay. Data is represented after being normalized to the vehicle control.

For another assay, the system named is 15-LO. As to the kind of experiment: 15-LO inhibition in intact human neutrophils. The note with it: without DTT. As for the experimental part:
(§1) Peripheral blood (University Hospital Jena, Germany) was withdrawn from healthy adult volunteers with consent that had not taken any anti-inflammatory drugs during the last 10 days, by venipuncture in heparinized tubes (16 IE heparin/mL blood). The blood was centrifuged at 4000 g for 20 min at 20° C. for preparation of leukocyte concentrates. Leukocyte concentrates were then subjected to dextran sedimentation and centrifugation on lymphocyte separation medium (LSM 1077, PAA, Colbe, Germany). Contaminating erythrocytes of pelleted neutrophils were removed by hypotonic Iysis. […] Method B. […] Cysteinyl-LTs C4, D4 and E4 were not detected (amounts were below detection limit), and oxidation products of LTB4 were not determined.

For another assay, the target named is T1, 12-LO (Homo sapiens, UniProt P18054).
T1 construct: endogenous in cells; host or cells: human blood neutrophil preparation
T1 sequence (P18054 1-663): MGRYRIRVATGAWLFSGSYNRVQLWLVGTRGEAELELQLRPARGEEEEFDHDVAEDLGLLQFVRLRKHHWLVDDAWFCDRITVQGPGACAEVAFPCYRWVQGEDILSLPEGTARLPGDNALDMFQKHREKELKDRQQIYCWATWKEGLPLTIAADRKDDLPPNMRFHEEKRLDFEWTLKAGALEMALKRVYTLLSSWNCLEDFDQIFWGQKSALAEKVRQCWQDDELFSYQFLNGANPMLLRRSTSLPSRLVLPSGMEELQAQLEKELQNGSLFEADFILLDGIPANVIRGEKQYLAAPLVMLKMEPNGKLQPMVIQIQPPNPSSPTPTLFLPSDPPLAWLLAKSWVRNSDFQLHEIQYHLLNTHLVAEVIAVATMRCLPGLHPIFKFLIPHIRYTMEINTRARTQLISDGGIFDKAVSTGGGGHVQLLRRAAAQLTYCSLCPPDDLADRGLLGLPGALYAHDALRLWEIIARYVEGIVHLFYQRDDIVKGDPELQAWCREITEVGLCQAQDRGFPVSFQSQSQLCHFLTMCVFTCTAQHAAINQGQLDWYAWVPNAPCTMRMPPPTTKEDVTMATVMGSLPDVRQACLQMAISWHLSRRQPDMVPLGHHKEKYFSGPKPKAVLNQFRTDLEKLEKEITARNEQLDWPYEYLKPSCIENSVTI
As to the kind of experiment: 12-LO inhibition in intact human neutrophils. The conditions noted are these: without DTT. The protocol:
as §1

Where two headings read alike, the source gives them in different places.

Consider `CC1(C)CCC2=C(O1)c1ccccc1C(=O)C2=O` [Compound 1, 3,4-dihydro-2,2-dimethyl-2H-naphtho[1,2-b]pyran-5,6-dione], for which the IC50 is 2.7 µM in the assay on HL-60; 0.18 µM in the assay with HL-60 cells (DMSO-stimulated HL-60 cells overexpressing 5-LO, read-out: IC50 (differentiated), HL-60); 0.39 µM in the assay with HL-60 cells (control HL-60 cells, read-out: IC50 (control), HL-60); over 30 µM in the assay on 15-LO; over 30 µM at 12-LO.
